Reference: PubChem BioAssay AID1208 (EPA DSSTox, 2008)
The source made the active and inactive calls.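 Rule for the calls: active = at least one rat sex group has a carcinogenic potency value and tumor site recorded; inconclusive = only rat studies were judged inadequate by the national testing program; inactive = no potency or tumor site, with negative rat experiments.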

Tested on: rat chronic carcinogenicity bioassay, TD50
Assay: DSSTox (CPDBAS) Carcinogenic Potency Database Summary Rat Bioassay Results
Conditions: for Potency: stronger effect = lower value
Outline: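 Chronic long-term rat cancer bioassays from literature and NCI/NTP, taking the most positive result per sex. TD50 in mmol converted to a 1–100 Activity Score from log10(1/TD50). Mixtures lacking TD50 scored 50.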

[1] = TD50_Rat_Note: no positive results, TargetSites_Rat_Female: no positive results
[2] = TD50_Rat_Note: TD50 is harmonic mean of more than one positive test, TargetSites_Rat_Female: liver
[3] = TD50_Rat_Note: no positive results

**Q.** With O=NN1CCCCCCC1 as the compound, how does the Potency (TD50_Rat_Note: TD50 is harmonic mean of more than one positive test) read?
**A.** 0.0378 mg/kg/day

**Q.** How did the outcome [1] turn out when O=[N+]([O-])c1ccc(NCCO)c(OCCO)c1 was run?
**A.** inactive; no positive results

**Q.** For Cc1cc(O)c(C(C)(C)C)cc1Sc1cc(C(C)(C)C)c(O)cc1C, which outcome [1] is on record?
**A.** inactive; no positive results

**Q.** CC(=O)Nc1nc(-c2ccc([N+](=O)[O-])o2)cs1 was tested. Which Potency (TD50_Rat_Note: TD50 is harmonic mean of more than one positive test, TargetSites_Rat_Female: mammary gland) did it give?
**A.** 17.8 mg/kg/day

**Q.** C=CN1CCCC1=O was tested. Which Potency (TD50_Rat_Note: TD50 is harmonic mean of more than one positive test, TargetSites_Rat_Female: liver, nasal cavity, oral cavity) did it give?
**A.** 12 mg/kg/day

**Q.** How did the Potency [2] turn out when CN(C)c1ccc(C(=O)c2ccc(N(C)C)cc2)cc1 was run?
**A.** 5.64 mg/kg/day

**Q.** How did the outcome [1] turn out when ClC(Cl)=C(Cl)c1c(Cl)c(Cl)c(Cl)c(Cl)c1Cl was run?
**A.** inactive; no positive results

**Q.** How did the outcome [1] turn out when CCOC(=O)C(O)(c1ccc(Cl)cc1)c1ccc(Cl)cc1 was run?
**A.** inactive; no positive results

**Q.** With Cc1ccc(N=C=O)cc1N=C=O as the compound, how does the Potency (TD50_Rat_Note: TD50 is harmonic mean of more than one positive test, TargetSites_Rat_Female: liver, mammary gland, pancreas, subcutaneous tissue) read?
**A.** 33.7 mg/kg/day

**Q.** Which Potency does the source give for O=C1c2ccccc2C(=O)c2c(O)c(O)cc(O)c21 here?
**A.** 678 mg/kg/day

**Q.** Which Potency (TargetSites_Rat_BothSexes: all tumor bearing animals) does the source give for O=NN1CCCCO1 here?
**A.** 24.3 mg/kg/day

**Q.** With Nc1nc(N)nc(-c2ccccc2)n1 as the compound, how does the outcome [3] read?
**A.** inactive; no positive results

**Q.** CS(=O)(=O)c1ccc([C@@H](O)[C@@H](CO)NC(=O)C(Cl)Cl)cc1 was tested. Which outcome [1] did it give?
**A.** inactive; no positive results

**Q.** How did the outcome [3] turn out when CCNNC(=O)[C@@H]1[C@H](c2cc(OC)c(OC)c(OC)c2)c2cc3c(cc2[C@H](O)[C@H]1CO)OCO3 was run?
**A.** inactive; no positive results

**Q.** NC(=O)N(CCF)N=O was tested. Which Potency did it give?
**A.** 0.125 mg/kg/day

**Q.** For CCN(Cc1cccc(S(=O)(=O)O)c1)c1ccc(C(=C2C=CC(=[N+](CC)Cc3cccc(S(=O)(=O)O)c3)C=C2)c2ccc(O)cc2S(=O)(=O)[O-])cc1, which outcome [1] is on record?
**A.** inactive; no positive results

**Q.** Which Potency (TD50_Rat_Note: TD50 is harmonic mean of more than one positive test, TargetSites_Rat_Female: thyroid gland) does the source give for CCCc1cc(=O)[nH]c(=S)[nH]1 here?
**A.** 13.7 mg/kg/day

**Q.** CC(=O)CN(N=O)C(=O)NCCCl was tested. Which outcome [1] did it give?
**A.** inactive; no positive results

**Q.** CCSC[C@H](N)C(=O)O was tested. Which outcome [3] did it give?
**A.** inactive; no positive results

**Q.** O=S1(=O)N=C(O)c2ccccc21 was tested. Which outcome [3] did it give?
**A.** inactive; no positive results

**Q.** How did the outcome [3] turn out when NC1=NCN([C@@H]2O[C@H](CO)[C@@H](O)[C@H]2O)C(=O)N1 was run?
**A.** inactive; no positive results

**Q.** With FC(F)(Cl)Cl as the compound, how does the outcome [1] read?
**A.** inactive; no positive results

**Q.** Which outcome [1] does the source give for CN=C(NC#N)NCCSCc1nc[nH]c1C here?
**A.** inactive; no positive results

**Q.** How did the Potency (TargetSites_Rat_BothSexes: hematopoietic system, liver, mammary gland) turn out when Nc1ccc(-c2ccc(N)cc2)cc1 was run?
**A.** 1.73 mg/kg/day

**Q.** CC(O)CN(CC(O)CO)N=O (stereo unspecified) was tested. Which Potency (TargetSites_Rat_Female: esophagus, oral cavity, stomach) did it give?
**A.** 0.0535 mg/kg/day

**Q.** With O=c1c(O)c(-c2ccc(O)c(O)c2)oc2cc(O)cc(O)c12 as the compound, how does the Potency (TD50_Rat_Note: TD50 is harmonic mean of more than one positive test, greater than ten-fold variation among TD50 values for positive res, TargetSites_Rat_Female: small intestine, urinary bladder) read?
**A.** 10.1 mg/kg/day

**Q.** What about the outcome [1] of the same compound?
**A.** inactive; no positive results

**Q.** Which Potency (TargetSites_Rat_Female: hematopoietic system, mammary gland) does the source give for O=C1NCCN1/N=C/c1ccc([N+](=O)[O-])o1 here?
**A.** 5.26 mg/kg/day

**Q.** For CC(=O)OCC(=O)[C@@]12N=C(C)O[C@@H]1C[C@H]1[C@@H]3CCC4=CC(=O)C=C[C@]4(C)[C@H]3[C@@H](O)C[C@@]12C, which outcome (TD50_Rat_Note: TD50 not calculated by CPDB Source, TD50_Rat_mmol was not calculated, but Activiity Score is assigned value of 50 to ind, TargetSites_Rat_Female: no positive results) is on record?
**A.** active; bone

**Q.** For CC(=O)Nc1nc(NC(C)=O)nc(-c2ccc([N+](=O)[O-])o2)n1, which Potency (TargetSites_Rat_Female: mammary gland) is on record?
**A.** 14.1 mg/kg/day

**Q.** For CC(=O)Nc1ccc(OCC(O)CNC(C)C)cc1 (stereo unspecified), which outcome [1] is on record?
**A.** inactive; no positive results

**Q.** Which Potency (TD50_Rat_Note: TD50 is harmonic mean of more than one positive test, TD50_Rat_mmol was not calculated for this mixture, but Activiity S, TargetSites_Rat_Female: liver) does the source give for Clc1cccc(-c2ccc(Cl)c(Cl)c2Cl)c1Cl here?
**A.** 4.8 mg/kg/day

**Q.** How did the outcome [1] turn out when CC(O)CCl (stereo unspecified) was run?
**A.** inactive; no positive results

**Q.** How did the outcome [1] turn out when O=c1[nH]c(=O)n(C2CCCO2)cc1F (stereo unspecified) was run?
**A.** inactive; no positive results

**Q.** Which outcome [3] does the source give for O=C1CC(=O)NC(=O)N1 here?
**A.** inactive; no positive results

**Q.** S=[Se] was tested. Which Potency [2] did it give?
**A.** 8.01 mg/kg/day

**Q.** Which outcome [1] does the source give for [C-]1=CC=CC1.[C-]1=CC=CC1.[Cl-].[Cl-].[Ti+4] here?
**A.** inactive; no positive results

**Q.** For CNNCc1ccc(C(=O)NC(C)C)cc1, which Potency (TD50_Rat_Note: positive test results only by intraperitoneal or intravenous injection, TD50 is harmonic mean of more than one positive, TargetSites_Rat_Female: hematopoietic system, mammary gland, nervous system) is on record?
**A.** 0.351 mg/kg/day

**Q.** And the Potency (TD50_Rat_Note: positive test results only by intraperitoneal or intravenous injection)?
**A.** 4.01 mg/kg/day

**Q.** For Nc1ccc(Sc2ccc(N)cc2)cc1, which Potency (TD50_Rat_Note: TD50 is harmonic mean of more than one positive test, TargetSites_Rat_Female: ear Zymbals gland, thyroid gland, uterus) is on record?
**A.** 3.71 mg/kg/day

**Q.** CN(Cc1cnc2nc(N)nc(N)c2n1)c1ccc(C(=O)N[C@@H](CCC(=O)O)C(=O)O)cc1 was tested. Which outcome [1] did it give?
**A.** inactive; no positive results
